According to article PMC8752738, “A propolis-derived small molecule ameliorates metabolic syndrome in obese mice by targeting the CREB/CRTC2 transcriptional complex” (Nature Communications, 2022):
“And” between values parts separate entries of the source, which are not always exact repeats. Equal entries are not always repeated.

Experiments:
[1] = tested on: CREB phosphorylation, CRTC2 dephosphorylation; test: Immunoblotting/immunostaining of P-CREB and CRTC2 in primary hepatocytes; assay type: cell-based, mouse; conditions: for Relative P-CREB/CREB density: Supp. Fig.10 c, individual replicates
Description: Immunoblotting and immunoprecipitation assays were performed as previously described, with antibodies recognizing CREB, Ser133-P-CREB, AMPK, P-AMPK, AKT, P-AKT (Cell Signaling), PGC-1α (Merck), CRTC2 (Calbiochem), PCK1 (Santa Cruz), SREBP1 (Santa Cruz), SREBP2 (BD), HA (Convance), LXRα (Santa Cruz), FLAG (Sigma), GST (Covance), HIS (Abmart), GAPDH (AOGMA), α-TUBULIN (Abmart), β-ACTIN (Abmart), and other antibodies (Supplementary Table 3). For immunostaining assays, primary cultured hepatocytes seeded on coverslips were fixed with 4% paraformaldehyde for 20 min, permeabilized with 0.3% Triton X-100 in PBS, and then blocked by 5% normal goat serum and 0.3% Triton X-100 in PBS, followed by incubation with anti-CREB (1:1000), anti-P-CREB (1:1000), or anti-HA (1:3000) antibodies for 1 h at 4 °C. Slides were then washed, and after washing, slides were incubated with fluorochrome-conjugated secondary antibodies (Invitrogen). Slides were then washed and mounted with Vectashield mounting media containing 4, 6-diamidino-2-phenylindole (DAPI).

[2] = tested on: promoter occupancy in primary hepatocytes; test: ChIP assays; assay type: cell-based, mouse; conditions: for ChIP: CBP, CRE-PGC1a, mean / ChIP: CBP, CRE-Pck1, mean: N=4
Fasting blood glucose = assay type: in vivo, mouse; set-up: Blood glucose of CRTC2KO / blood glucose in CRTC2KO, mean: unit not given here; conditions: for blood glucose in CRTC2KO, mean / Blood glucose of CRTC2KO: Figure 9e, 20mg/kg; for blood glucose in CRTC2KO, mean: N 6
mTORC1 = test: Immunoblotting of mTORC1 signaling, mature SREBP1 and FASN in primary hepatocytes; assay type: cell-based, mouse; conditions: glucagon-insulin-treated primary hepatocytes
Description: Fi g u re B . Immunoblotting analysis of phosphorated or total protein amounts of S6K , mature SREBP -1and FASN in primary hepatocyt es . The cells wer epretreated with APC (10 μ M) for 2 hours , exposed to glucagon (100 nM) for 4 hours, and t hen followed by12- hour insulin (100 nM) incubationbefore collection.
(1 picture or pasted object on this page, not shown here) […]
I have a few more points that have to be addressed in the revised work.
1. In Figure B, it appeared that APC-induced p-S6K level was rather inhibited by glu/ins treatment (lane 3 vs lane 4). Is it significant?
Response: We agree wit h Reviewer1’ s comments that the western blotting band of p-S6K level of lane 4 seems weaker than that of lane3 in Figure B. However, we performed the densitometry analysis of all the results from three independent […]
independent of its effect on reducing SREBP-1c expression and the subsequent repression of lipogenesis. The authors should simply run western blot for mTORC1 signaling by utilizing the existing samples.
Response: We are grat eful for Reviewer1’s com ments. […]
to glucagon (100 nM) for 4 hours, and then followed by 12- hour insulin (100 nM) incubation before collection. […] Data are represented as mean ± SEM. *, p < 0.05; **, p < 0.01; p values were determined by two- way ANOVA followed Bonferroni’s multiple comparisons test. […]

HIS-CREB protein = biological target: T1, HIS-CREB protein (Homo sapiens, UniProt P16220); test: Surface plasmon resonance, immobilized HIS-CREB; assay type: binding; conditions: dose-dependent
T1 construct: made in house
T1 sequence (P16220 whole entry): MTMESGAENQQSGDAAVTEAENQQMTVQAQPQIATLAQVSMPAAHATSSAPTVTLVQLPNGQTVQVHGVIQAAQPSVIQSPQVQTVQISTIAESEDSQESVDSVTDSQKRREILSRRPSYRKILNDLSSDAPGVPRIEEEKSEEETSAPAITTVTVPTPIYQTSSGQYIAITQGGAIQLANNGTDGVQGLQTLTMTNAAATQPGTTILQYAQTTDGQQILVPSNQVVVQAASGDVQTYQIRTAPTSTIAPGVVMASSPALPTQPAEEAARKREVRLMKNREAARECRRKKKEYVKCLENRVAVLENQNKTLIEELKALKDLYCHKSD
Description: BIACORE 100 (GE Healthcare) was employed to perform surface plasmon resonance. Briefly, purified HIS-CREB proteins were captured in the test channel of an NTA-chip (GE, Healthcare) in HEPES buffer (10 mM HEPES, 150 mM NaCl, 3 mM EDTA, pH 7.5). APC solutions with different concentrations were flowed through immobilized HIS-CREB proteins for indicated times, which caused equilibrium response values (RU) to change appropriately. The detected RU values were plotted by time using GraphPad Prism software.

[3] = mean over Gluc0, Gluc30, Gluc60
[4] = primary hepatocytes exposed to glucagon, APC 10 μM

In the case of CC(C)=CCc1cc(C=CC(=O)O)cc(CC=C(C)C)c1O [APC, 3,5-diprenyl-4-hydroxycinnamic acid], the “Relative P-CREB/CREB density” value ([1]; CT (no glucagon), CTRL about 1.0) is reported as 1.21 and 1.302 and 1.2292, the “Relative P-CREB/CREB density” value ([1]; GLUC (glucagon), CTRL about 2.91) is reported as 3.03 and 2.994 and 2.993 and the “CREB phosphorylation induced by glucagon” value ([1]; primary hepatocytes) is reported as “very little effect”. For the same molecule, the “CRTC2 dephosphorylation or nuclear translocation” value ([1]; primary hepatocytes, APC 10 μM, glucagon) was “very little effect”, the “ChIP CREB in LXRa promoter, Input %” value ([2]; ChIP-CREB, LXRa promoter, individual replicates, n=4) was 48.6099 Input % and 36.4614 Input % and 38.9243 Input % and 32.1584 Input % and the “ChIP CREB in LXRa promoter, group mean (Mean 1)” value ([2]; ChIP-CREB, LXRa promoter, mean of N=4) was 39.04 Input %. The “ChIP CRTC2 in LXRa promoter, Input %” value ([2]; ChIP-CRTC2, LXRa promoter, individual replicates, n=4) was 91.9916 Input % and 76.2395 Input % and 65.9044 Input % and 83.3167 Input %, the “ChIP CRTC2 in LXRa promoter, group mean (Mean 1)” value ([2]; ChIP-CRTC2, LXRa promoter, mean of N=4) was 79.36 Input % and the “ChIP-IgG in LXRa promoter, Input %” value ([2]; ChIP-IgG (control antibody), LXRa promoter, individual replicates, n=4) was 0.8383 Input % and 0.5702 Input % and 0.8279 Input % and 1.761 Input %. For the same molecule, the “ChIP-IgG in LXRa promoter, group mean (Mean 1)” value ([2]; ChIP-IgG (control antibody), LXRa promoter, mean of N=4) was 0.9995 Input %, the “ChIP: LXRa recuited in Srebf1 promoter, relative enrichment folds, group mean (Mean 1)” value ([2]; ChIP-LXRa, Srebf1 promoter, mean of N=4) was 0.4914 fold and the “ChIP: RXRa recuited in Srebf1 promoter, relative enrichment folds, group mean (Mean 1)” value ([2]; ChIP-RXRa, Srebf1 promoter, mean of N=4) was 0.5838 fold. For the same molecule, the “ChIP: LXRa recuited in Srebf1 promoter, relative enrichment folds” value ([2]; ChIP:LXRa, Srebf1 promoter, individual replicates, n=4) was 0.5482 fold and 0.5209 fold and 0.4024 fold and 0.494 fold, the “ChIP: RXRa recuited in Srebf1 promoter, relative enrichment folds” value ([2]; ChIP:RXRa, Srebf1 promoter, individual replicates, n=4) was 0.4207 fold and 0.6691 fold and 0.5173 fold and 0.7279 fold and the “ChIP: CBP, CRE-PGC1a, mean” value ([2]; Gluc0) was 0.891. The “ChIP: CBP, CRE-Pck1, mean” value ([2]; Gluc0) was 0.921, the “ChIP: CBP, CRE-PGC1a, mean” value ([2]; Gluc30) was 0.574 and the “ChIP: CBP, CRE-Pck1, mean” value ([2]; Gluc30) was 0.749. The “ChIP: CBP, CRE-PGC1a, mean” value ([2]; Gluc60) was 0.582, the “ChIP: CBP, CRE-Pck1, mean” value ([2]; Gluc60) was 0.834 and the “Mean of APC_ChIP: CBP, CRE-G6pc” value [2, 3] was 1.496. For the same molecule, the “Mean of ChIP: CBP & APC, CRE-Pck1” value [2, 3] was 0.835, the “Mean of ChIP: CBP & APC, CRE-Pgc-1a” value [2, 3] was 0.682 and the “CRTC2 recruited to CRE sites of G6pc, Pgc-1α and Pck1 promoters (ChIP)” value [2, 4] was “significantly attenuated”. The “occupancy of CREB or CBP at CRE sites (ChIP)” value [2, 4] was “little effect”, the “LXRα and RXRα recruited to LXRE element of Srebf1 promoter (ChIP)” value ([2]; primary hepatocytes, APC 10 μM) was “reduced” and the “occupancy of CRTC2 on half CRE site of Lxrα promoter (ChIP)” value ([2]; primary hepatocytes, glucagon, APC 10 μM) was “attenuated”. For the same molecule, the “fasting blood glucose levels” value (Fasting blood glucose; DIO and db/db mice, i.p. 20 mg/kg) was “remarkably decreased”, the “blood glucose in CRTC2KO, mean” value (Fasting blood glucose; CRTC2KO mice, group mean) was 3.317 and the “Blood glucose of CRTC2KO” value (Fasting blood glucose; CRTC2KO mice, single animals) was 3.3 (2×) and 3.8 and 2.6 and 3.1. The “blood glucose in CRTC2KO, mean” value (Fasting blood glucose; WT mice, group mean) was 3.65, the “Blood glucose of CRTC2KO” value (Fasting blood glucose; WT mice, single animals) was 2.1 and 3.3 and 3.2 (3×) and 4 and the “FBG in db/db, mean” value (Fasting blood glucose; Figure 9f, db/db, group mean, n 5) was 19.96 mM. The “Fasting blood glucose” value (Fasting blood glucose; Figure 9f, db/db, single animals) was 13 mM and 22 mM and 26.3 mM and 18.9 mM and 19.6 mM, the “Fasting blood glucose, mean of column B” value (Fasting blood glucose; Figure 8d, group mean, n=6, VEH mean 137.4) was 91.6 mg/dL and the Fasting blood glucose (Fasting blood glucose; Figure 8d, individual mice) was 79.2 mg/dL and 84.6 mg/dL and 110.4 mg/dL and 95.4 mg/dL and 102.6 mg/dL and 77.4 mg/dL. For the same molecule, the “fasting blood glucose levels” value (Fasting blood glucose; db/db mice, one oral delivery 5 mg/kg) was “little effect”, the “fasting blood glucose in db/db mice, mean” value (Fasting blood glucose; group mean, n=6) was 109.4 mg/dL and the “effect on fasting blood glucose in Crtc2KO mice” value (Fasting blood glucose; high-fat diet, oral 20 mg/kg daily, 3 days) was “abolished”. The “fasting blood glucose in db/db mice” value (Fasting blood glucose; individual mouse) was 141.4 mg/dL and 95.6 mg/dL and 108 mg/dL and 121.6 mg/dL and 83.4 mg/dL and 106.2 mg/dL, the mTORC1 activity (mTORC1) was “increased” and the “protein amounts of mature SREBP1 and fat acid synthase” value (mTORC1) was “decreased”. The “binding to immobilized HIS-CREB (SPR)” value (HIS-CREB protein) was “directly bound”.
